Where two headings read alike, the source gives them in different places.
Key:
T. brucei cells = assay: microbe, parasite or virus in culture; format: cell-based, Trypanosoma brucei; details: for EC50: Trypanosoma brucei, read-out: T. brucei pEC50 (within 46%) (converted); for T. brucei pEC50 (within 46%): purchased inhibitors, Table 3
P. falciparum C235 = assay: microbe, parasite or virus in culture; format: cell-based, Plasmodium falciparum; details: for EC50: Plasmodium falciparum, read-out: P. falciparum C235 pEC50 (converted)
L. major promastigotes = assay: microbe, parasite or virus in culture; format: cell-based, Leishmania major; details: for EC50: Leishmania major, read-out: Leishmania Promast pEC50 (converted); for Leishmania Promast pEC50: L. major promastigotes
[1] = system: T. cruzi intracellular amastigotes (Tulahuen strain); assay: microbe, parasite or virus in culture; format: cell-based, Trypanosoma cruzi; details: for EC50: Trypanosoma cruzi, TULAHUEN, read-out: T. cruzi pEC50 (μM) (within 21%) (converted); for T. cruzi pEC50 (within 21%): intracellular amastigotes, Tulahuen strain
3T3 = 3T3 host cell toxicity; format: cell-based
HepG2 cells = assay: HepG2 host cell toxicity assay; format: cell-based; details: HepG2, purchased inhibitors, Table 3
P. falciparum W2 = assay: microbe, parasite or virus in culture; format: cell-based, Plasmodium falciparum; details: for EC50: Plasmodium falciparum, W2, read-out: P. falciparum W2 pEC50 (converted)
[2] = system: L. major intracellular amastigotes; assay: microbe, parasite or virus in culture; format: cell-based, Leishmania major; details: for EC50: Leishmania major, read-out: Leishmania Amast pEC50 (converted); for Leishmania Amast pEC50: L. major intracellular amastigotes
P. falciparum D6 = assay: microbe, parasite or virus in culture; format: cell-based, Plasmodium falciparum; details: for EC50: Plasmodium falciparum, D6, read-out: P. falciparum D6 pEC50 (converted); for P. falciparum D6 pEC50: D6 strain
[3] = HAT patients; cited from earlier work

| Compound | EC50 (P. falciparum C235) | EC50 (L. major promastigotes) | EC50 (P. falciparum W2) | EC50 [2] | EC50 (P. falciparum D6) | T. brucei pEC50 (within 46%) (T. brucei cells) | P. falciparum C235 pEC50 (P. falciparum C235) | Leishmania Promast pEC50 (L. major promastigotes) | T. cruzi pEC50 (within 21%) [1] | P. falciparum W2 pEC50 (P. falciparum W2) | Leishmania Amast pEC50 [2] | P. falciparum D6 pEC50 (P. falciparum D6) | EC50 (T. brucei cells) | EC50 [1] | host cell tox 3T3 pTC50 (3T3) | host cell tox HepG2 pTC50 (HepG2 cells) | T. brucei proliferation activity (in words; active = pEC50 ≥ 6) (T. brucei cells) | T. brucei proliferation activity (in words; active = pEC50 ≥ 6) (T. brucei cells; listed as NVP-TAE684) | mortality rate of melarsoprol treatment [3] |
| --- | --- | --- | --- | --- | --- | --- | --- | --- | --- | --- | --- | --- | --- | --- | --- | --- | --- | --- | --- |
| O=c1sn(-c2cccc3ccccc23)c(=O)n1Cc1ccccc1 [NEU-991, tideglusib] | 20000 nM | 316 nM | 25100 nM | > 15800 nM | 25100 nM | – | – | – | – | – | – | – | > 3160 nM | 20 µM | 4.1 | <4.4 | – | – | – |
| COc1ccc2c(c1)[nH]c1c(C)nccc12 [NEU-1049, harmine] | > 20000 nM | 1260 nM | > 20000 nM | 1260 nM | > 20000 nM | – | – | – | – | – | – | – | > 3160 nM | 15.8 µM | <4 | <5.1 | – | – | – |
| C[C@@H](Oc1cc(-c2cnn(C3CCNCC3)c2)cnc1N)c1c(Cl)ccc(F)c1Cl [NEU-838, crizotinib] | 100 nM | 631 nM | 39.8 nM | 1580 nM | 794 nM | – | – | – | – | – | – | – | 398 nM | 7.94 µM | 4.8 | 5.4 | potent T. brucei proliferation inhibitors | – | – |
| CC(C)CC(=O)Nc1[nH]nc2c1CN(C(=O)C1CCN(C)CC1)C2(C)C [NEU-1007, PHA-79388727] | 2510 nM | > 25100 nM | 2510 nM | > 15800 nM | 2000 nM | – | – | – | – | – | – | – | 2000 nM | > 50.1 µM | <4 | <4.4 | – | – | – |
| Nc1nc(NCCNc2ncc(-c3ncc[nH]3)c(-c3ccc(Cl)cc3Cl)n2)ccc1[N+](=O)[O-] [NEU-978, CHIR-9801414] | – | – | – | – | – | <5.5 | <4.7 | 5.2 | < 4.3 | <4.7 | <4.8 | <4.7 | – | – | <4 | 4.8 | – | – | – |
| CCc1cc2c(cc1N1CCC(N3CCOCC3)CC1)C(C)(C)c1[nH]c3cc(C#N)ccc3c1C2=O [NEU-974, CH542480210] | > 20000 nM | 126 nM | > 20000 nM | > 15800 nM | 3980 nM | – | – | – | – | – | – | – | > 3160 nM | > 50.1 µM | <4 | <4.4 | – | – | – |
| O=C(NC1CCNCC1)c1n[nH]cc1NC(=O)c1c(Cl)cccc1Cl [NEU-982, AT751918] | 316 nM | > 25100 nM | 794 nM | > 15800 nM | 1260 nM | – | – | – | – | – | – | – | 316 nM | 1.26 µM | <4 | <4.4 | – | – | – |
| COc1cc(N2CCC(N3CCN(C)CC3)CC2)ccc1Nc1ncc(Cl)c(Nc2ccccc2S(=O)(=O)C(C)C)n1 [NEU-844, TAE684] | 501 nM | 316 nM | 398 nM | 1260 nM | 501 nM | – | – | – | – | – | – | – | 100 nM | 5.01 µM | 4.6 | 5.3 | – | potent T. brucei proliferation inhibitors | – |
| CCc1cc(Nc2nccc(-c3c(-c4ccc(OC)c(C(=O)Nc5c(F)cccc5F)c4)nc4ccccn34)n2)c(OC)cc1N1CCC(N2CCN(S(C)(=O)=O)CC2)CC1 [NEU-970, GSK1904529A7] | – | – | – | – | – | 5.9 | 6.9 | <4.9 | < 4.3 | 7.0 | 5.5 | 6.8 | – | – | <4 | <4.4 | – | – | – |
| Cc1ncc(-c2ccnc(Nc3ccc(S(C)(=O)=O)cc3)n2)n1C(C)C [NEU-985, AZD543821] | 1260 nM | 398 nM | 1000 nM | 2510 nM | 1260 nM | – | – | – | – | – | – | – | 31.6 nM | 1.58 µM | <4 | 4.9 | – | – | – |
| O=C1NC(=O)C(c2ccccc2[N+](=O)[O-])=C1Nc1ccc(O)c(Cl)c1 [NEU-986, SB 41528622] | – | – | – | – | – | – | – | – | – | – | – | – | – | – | 4.2 | <4.4 | – | – | – |
| Nc1ncnc2c1c(-c1cccc(OCc3ccccc3)c1)cn2[C@H]1C[C@@H](CN2CCC2)C1 [NEU-967, NVP-AEW5414] | 1260 nM | 100 nM | 1000 nM | 3980 nM | 1260 nM | – | – | – | – | – | – | – | 2000 nM | 3.98 µM | 4.8 | 5.5 | – | – | – |
| CCc1cnn2c(NCc3ccc[n+]([O-])c3)cc(N3CCCC[C@H]3CCO)nc12 [NEU-975, dinaciclib] | – | – | – | – | – | – | – | – | – | – | – | – | – | – | <4 | <4.4 | – | – | – |
| Nc1nc(N)nc(Nc2ccc([As]3SCC(CO)S3)cc2)n1 (centres unmarked) [melarsoprol] | – | – | – | – | – | – | – | – | – | – | – | – | – | – | – | – | – | – | ≥ 5% |
| CC(C)(C)c1cnc(CSc2cnc(NC(=O)C3CCNCC3)s2)o1 [NEU-984, SNS-03219, 20] | 2000 nM | > 25100 nM | 3160 nM | > 15800 nM | 5010 nM | – | – | – | – | – | – | – | 126 nM | > 50.1 µM | <4 | <4.4 | – | – | – |
| CC[C@H](CO)Nc1nc(NCc2ccccc2)c2ncn(C(C)C)c2n1 [NEU-977, roscovitine] | – | – | – | – | – | – | – | – | – | – | – | – | – | – | <4 | 4.5 | – | – | – |
| Nc1nc(Nc2ccc(S(N)(=O)=O)cc2)nn1C(=O)c1c(F)cccc1F [NEU-971, JNJ-77066218] | 1260 nM | > 25100 nM | 1000 nM | > 15800 nM | 2000 nM | – | – | – | – | – | – | – | 316 nM | > 50.1 µM | <4 | 5.2 | – | – | – |

Further lines, with some results ahead:

| EC50 (P. falciparum C235) | EC50 (L. major promastigotes) | EC50 (P. falciparum W2) | EC50 [2] | EC50 (P. falciparum D6) | T. brucei pEC50 (within 46%) (T. brucei cells) | P. falciparum C235 pEC50 (P. falciparum C235) | Leishmania Promast pEC50 (L. major promastigotes) | T. cruzi pEC50 (within 21%) [1] | P. falciparum W2 pEC50 (P. falciparum W2) | Leishmania Amast pEC50 [2] | P. falciparum D6 pEC50 (P. falciparum D6) | Compound | EC50 (T. brucei cells) | EC50 [1] | host cell tox 3T3 pTC50 (3T3) | host cell tox HepG2 pTC50 (HepG2 cells) | T. brucei proliferation activity (in words; active = pEC50 ≥ 6) (T. brucei cells) | T. brucei proliferation activity (in words; active = pEC50 ≥ 6) (T. brucei cells; listed as NVP-TAE684) | mortality rate of melarsoprol treatment [3] |
| --- | --- | --- | --- | --- | --- | --- | --- | --- | --- | --- | --- | --- | --- | --- | --- | --- | --- | --- | --- |
| 12.6 nM | 3980 nM | 10 nM | 7940 nM | 20 nM | – | – | – | – | – | – | – | CC[C@@H]1C(=O)N(C)c2cnc(Nc3ccc(C(=O)NC4CCN(C)CC4)cc3OC)nc2N1C1CCCC1 [NEU-980, BI 253616] | 631 nM | 20 µM | 4.5 | 5.6 | – | – | – |
| 1580 nM | 398 nM | 2000 nM | 3160 nM | 2000 nM | – | – | – | – | – | – | – | CN1CC[C@H](c2c(O)cc(O)c3c(=O)cc(-c4ccccc4Cl)oc23)[C@H](O)C1 [NEU-987, flavopiridol] | 158 nM | 12.6 µM | < 4 | < 4.4 | – | – | – |
| > 20000 nM | 2510 nM | > 20000 nM | > 15800 nM | > 20000 nM | – | – | – | – | – | – | – | Cn1cc(C2=C(c3ccc(Cl)cc3Cl)C(=O)NC2=O)c2ccccc21 [NEU-990, SB 21676322] | > 3160 nM | > 50.1 µM | <4 | <4.4 | – | – | – |
| – | – | – | – | – | 6.0 | 5.1 | 4.7 | < 4.3 | 4.7 | <4.8 | 5.0 | Nc1cccc(-c2cc3c(Oc4cccc(O)c4)ncnc3[nH]2)c1 [NEU-989, TWS11925] | – | – | 4.4 | <4.4 | – | – | – |
| 12600 nM | 251 nM | 10000 nM | > 15800 nM | 15800 nM | – | – | – | – | – | – | – | CCCCOc1c(C(=O)c2c(F)cc(C)cc2F)c[nH]c2nncc1-2 [NEU-968, BMS-2652465] | 501 nM | > 50.1 µM | <4 | <4.4 | – | – | – |
| > 20000 nM | > 25100 nM | > 20000 nM | > 15800 nM | > 20000 nM | – | – | – | – | – | – | – | COc1cc(OC)c(/C=C/S(=O)(=O)Cc2ccc(OC)c(NCC(=O)O)c2)c(OC)c1 [NEU-973, ON-019109] | > 3160 nM | > 50.1 µM | <4 | <4.4 | – | – | – |
| 501 nM | 7940 nM | – | > 15800 nM | 501 nM | – | – | – | – | – | – | – | C[C@]1(O)C[C@@H](c2nc(-c3ccc4ccc(-c5ccccc5)nc4c3)c3c(N)nccn32)C1 [NEU-976, linsitinib] | > 3160 nM | 10 µM | <4 | 4.5 | – | – | – |
| 158 nM | 1580 nM | 158 nM | 7940 nM | 158 nM | – | – | – | – | – | – | – | CC[C@@H]1C(=O)N(C)c2cnc(Nc3ccc(C(=O)N[C@H]4CC[C@H](N5CCN(CC6CC6)CC5)CC4)cc3OC)nc2N1C(C)C [NEU-979, volasertib] | > 3160 nM | 12.6 µM | 4.6 | 5.5 | – | – | – |
| 6310 nM | 316 nM | 7940 nM | 5010 nM | 6310 nM | – | – | – | – | – | – | – | CNC(=O)c1nn(C)c2c1C(C)(C)Cc1cnc(Nc3ccc(N4CCN(C)CC4)cc3)nc1-2 [NEU-969, PHA-8481256] | 25.1 nM | 0.0398 µM | <4 | 5.0 | – | – | – |

From article PMC4791575 (ACS Infectious Diseases, 2016)
